Experimental data published in a melting point compilation (Tetko et al.; mined from patent text by program, amines drawn as free bases though some values may be those of a salt).
Non-standard residues stand in square brackets, D forms with d. Residues, ends and D or L forms follow the SMILES beside them. Hyp = O=C(O)[C@@H]1C[C@@H](O)CN1

Structure (SMILES)	melting point [°C]
CC(C)(C)c1ccc2c(c1)C([Si](C)(C)C)c1cc(C(C)(C)C)ccc1-2	144 to 146
CN1c2ccc(S(=O)(=O)c3ccccc3)cc2C2C[C@H](N)CCC21 (some centres undefined)	217 to 219
NCC(=O)N1C[C@H](O)C[C@H]1C(=O)N[C@@H](CCC(=O)O)C(=O)O (H-Gly-[Hyp]-Glu-OH)	158 to 160
CC#CCOc1ccc(S(=O)(=O)NC2(C(=O)OC)CCCC2)cc1	81 to 83
CCC1(O)CCC2C3=C(CCC21C)c1ccc(OC)cc1CC3 (centres undefined)	105 to 120
CCCCCCCCCCCCCCC1COC2(CC(c3ccccc3)NC(c3ccccc3)C2)O1 (centres undefined)	63 to 70
O=[N+]([O-])c1ccc(Oc2ccc(Cl)cc2Cl)cc1Oc1ccc(Cl)cc1Cl	91 to 93
CCc1[nH]n(C2CCCC2)c2nc(C3CCNC4CCCCC43)nc(=O)c1-2 (centres undefined)	> 300
C[C@H]1[C@H](O[Si](C)(C)C(C)(C)C)[C@H](O)C(S(=O)(=O)c2ccccc2)=C[C@H](C)[C@H]1O[Si](C)(C)C(C)(C)C	81 to 83
CCOc1csc(C2OC(=O)NC2=O)c1 (centres undefined)	144 to 146
OCc1cn(-c2cc(F)cc(Br)c2)cn1	134 to 138
FC(F)(F)c1cccc2c1SSSSS2	55 to 60
N#Cc1cc(F)c(N(CCO)CCO)c(F)c1	63 to 65
O=C(C#Cc1cccc(OCc2ccccc2)c1)c1ccccc1	75 to 77
CCCCC1(SCC)CCC2C3CCC4=CC(=O)C=CC4(C)C3(F)C(O)CC21C (centres undefined)	185 to 187
O=C(c1ccccc1)c1ccc(Cl)nc1	39 to 40
CNC(=S)NCCCSc1nccs1	67 to 68
COc1ccc2nc(OC)cc(CCNC(C)=O)c2c1	119 to 121
CCC1Cc2c(N3CCOCC3)c(F)cc3c(=O)c(C(=O)O)cn1c23 (centres undefined)	275 to 278
CN1C(=O)C(F)N=C(c2ccccc2F)c2cc(Br)ccc21 (centres undefined)	127 to 130
CCCCCCCCCCCCCCCC(=O)Nc1nc(=O)n(C2OC(C)C(O)C2O)cc1F (centres undefined)	93 to 95
COc1ccc2c(c1)C13CCCOC1(C)C(C2)N(C(=O)C1CCC1)CC3 (centres undefined)	166 to 167
Cc1cc(C)c(C(=O)O)s1	153 to 155
O=C(O)CCCc1nc(NCc2ccc3c(c2)OCO3)c2cc(Cl)sc2n1	112
O=C(O)[C@H](CO)NC(=O)[C@@H]1CS[C@H](c2ccccc2O)N1C(=O)CCS	140 to 145
COC(=O)CC/C(C)=C/Cc1c(OC)c(C)c2c(c1OS(=O)(=O)C(F)(F)F)C(=O)OC2	53 to 55
CCC1CC2=C3C(=CN(OC)C2OC)OCCC3C1 (centres undefined)	207 to 210

Structure (SMILES)	melting point [°C]
Nc1c(C(F)(F)F)cc2[nH]c(=O)c(=O)[nH]c2c1Cl	> 360
CC1CSC(=O)C2Cc3ccccc3N2C1=O (centres undefined)	108 to 110
COc1cc(C(=O)O)cc2c(C)c(C)oc12	229 to 231
COc1cc(CCCCC2OC(=O)NC2=O)ccc1O (centres undefined)	115 to 116
c1cc2ncn(CCCCc3nnnn3C3CCCCC3)c2cn1	133 to 135
CCCCCCCCCCc1ccc(C(=O)COC)c(OC(=O)c2cc(OC)c(OC)cc2OC)c1	80 to 81
COC(=O)c1nc(Cl)cc(N)c1OC	78 to 79
CN1CCN(C(=O)c2c(Br)c(Br)c([N+](=O)[O-])c3c2OCCO3)CC1	164
O=CC(=CCl)c1ccc(Cl)cc1	38
Oc1nc(Cc2ccccc2)nc(O)c1-c1ccccc1	337
CCOC(=O)CC(=O)Cc1ccc(Br)cc1[N+](=O)[O-]	78 to 80
CCOc1nnc(COc2ccc(Oc3cccc(Cl)n3)cc2)s1	92 to 94
COc1ccc2[nH]cc(-c3cc4c(C#N)ccnc4[nH]3)c2c1	303 to 304
C=C(C)[C@@H]1CC(=O)[C@H](C)[C@H]1c1nc2c([nH]1)c(=O)n(CCC)c(=O)n2CCC	136 to 137
C=C(C)COc1cc(Cl)ccc1[N+](=O)[O-]	47 to 49
CC(C)CC1(C(C)C(=O)O)CCN(CCc2ccccc2)C1=O (centres undefined)	94 to 95
Cc1cc(C)c(OP(Oc2c(C)cc(C)cc2C)Oc2c(C)cc(C)cc2C)c(C)c1	92 to 95
CN(C)C1(c2ccccc2)CCC(CC(=O)NCCCCc2c[nH]c3ccccc23)CC1 (centres undefined)	186
CC(C)(Cc1cc2ccccc2[nH]1)[N+](=O)[O-]	102 to 103
O=C(CNC(=O)c1cccc(Cl)c1)c1ccsc1	137 to 140
COc1ccc(Cc2cc(SC#N)ccc2OC)cn1	56 to 58
NCCc1ccc(C(N)=O)cc1	132 to 133
COc1c(Cl)ccc(Cl)c1C(=O)NN	144 to 145
O=c1ccc(S(=O)(=O)n2nc(Cl)c3ccccc32)n[nH]1	238 to 239
CC(=O)Nc1cc(C(C)(C)C)[nH]n1	194 to 195
CN(C)c1cc(CO)ncn1	137 to 139
COc1ncc(Cc2n[nH]c(=O)c3ccccc23)cc1Br	227 to 228

Other lines, results leading:

melting point [°C]	Structure (SMILES)
123 to 125	CCCCCCCNC(=O)Nc1ccccc1C(=O)Nc1c(C(C)C)cccc1C(C)C
86 to 88	O=C(NCCO)c1ccc(-c2ccccn2)cc1
157 to 158	OCc1cccc2c1nc(-c1c(F)cccc1F)n2Cc1c(F)cccc1F
178 to 180	CCCCCNC(=O)Nc1ccccc1C(=O)NCC1CCN(C(c2ccccc2)c2ccccc2)CC1
124 to 125	O[C@H](CCc1cccnc1)COc1ccc(-c2ccc(F)cc2)cc1
120 to 122	OC1(c2ccc(F)cc2)CCC2CN(Cc3ccccc3)CCC2C1 (centres undefined)
> 250	O=C1N(CC2CCCO2)c2ccccc2C12COc1c[nH]c(=O)cc12 (centres undefined)
114 to 116	CCCc1nn(C)c2c(-c3ccc(SC)cc3)nc(-c3ccc(F)cc3)nc12
197 to 198	COc1ccc(N2CCN(c3ccc(NC(=O)Oc4ccccc4)cn3)CC2)cc1
219 to 220	Cc1ccc(-c2nnc3cc(-c4ccccc4)c(OCc4ncn(C)n4)nn23)cc1
110 to 111	C[Si](C)(C)C#Cc1ccc(Oc2ccc(C(=O)C(=O)c3cccc(C(=O)C(=O)c4ccc(Oc5ccc(C#C[Si](C)(C)C)cc5)cc4)c3)cc2)cc1
232 to 237	CC1(CNC(=O)C(F)(F)F)CN(c2c(F)cc3c(=O)c(C(=O)O)cn(C4CC4)c3c2F)C1
206 to 207	CC1(C)C(=O)Nc2ccc(-c3cc(F)cc(Cl)c3)cc21
166 to 167	Cc1nc(-n2cc(OCc3ccccc3)ccc2=O)sc1C(=O)NCc1ccccc1
153 to 154	O=c1oc2cc(OCc3nnn[nH]3)cc(OCc3nnn[nH]3)c2c2c1C(c1ccccc1)CCC2 (centres undefined)
147 to 148	Cc1nc(N2C[C@@H](C)N(Cc3cc(F)cc(F)c3)C2=O)sc1C(=O)NCc1ccccn1
196 to 198	O=C(Nc1nc(-c2ccco2)c(C(=O)C2CCOCC2)s1)c1ccco1
311 to 314	O=C(O)c1cnc2c3cc(NC(=O)C4CCCCC4)ccc3ncn2c1=O
129 to 130	CC(=O)c1ccc(OCCCCNS(=O)(=O)c2ccc(Br)cc2)cc1
188 to 189	CCCCCOCCOc1ccc(-c2ccc3c(c2)C=C(C(=O)Nc2ccc(CN(C)C4CCOCC4)cc2)CCS3(=O)=O)cc1
120 to 122	Cc1cccc(-c2[nH]c(C(C)C)nc2-c2cccc(-c3ccc(OC(F)(F)F)cc3)c2)n1
212 to 218	CN(CC(=O)O)C[C@@H]1CC(c2ccc(-c3ccc(N4C[C@H](Cn5ccnn5)OC4=O)cc3F)cn2)=NO1
179 to 183	CCONC(=O)c1cccc(-c2nc3ccccc3c(=O)o2)c1

melting point [°C]	Structure (SMILES)
> 200	Cc1cc(Cc2ccccc2)c(NS(=O)(=O)Cc2ccccc2)c(=O)n1CC(=O)O
120 to 122	Fc1ccc(-c2cn(CCC#Cc3ccccn3)nn2)cc1
180 to 182	N=C(N)NCc1ccc(OCCC2Oc3ccccc3N(Cc3ccccc3Cl)C2=O)cc1 (centres undefined)
216 to 219	Nc1cnc(-c2ccc(OCc3ccccc3)c(C34CC5CC(CC(C5)C3)C4)c2)nc1
169 to 170	FC(F)(F)c1ccc(CCc2cc(OCc3ccccc3)c(OCc3ccccc3)nn2)cc1Cl
92	Cc1cc(S(=O)(=O)N2c3ccccc3CC2C(=O)NCCOc2ccc(CC(=O)O)cc2)ccc1-c1cccc(C(F)(F)F)c1 (centres undefined)
158 to 160	COc1ccc(-c2cnc(N3CCC(O)CC3)nc2)cc1
187 to 189	Cc1cc(NC(=O)c2cccc(CSc3ncnc4[nH]ncc34)c2)ccc1C(C)C
179 to 180	O=C(O)C(=O)c1ccc(OCCOc2ccc(-c3ccccc3)cc2)cc1
220 to 221	COc1ccc(C(=O)OC(=C2C(=O)N(C(N)=O)c3cc(Cl)c(F)cc32)c2cccs2)cc1
186 to 188	COC(=O)c1ccc(NC(=O)c2cc(C(C)C)c(C(C)C)o2)cn1
> 330	CN(C(=O)CCCOc1ccc2nc3n(c(=O)c2c1)CS(=O)(=O)N3)C1CCCCC1
114 to 115	Cc1oc(-c2ccccc2)nc1COc1ccc2oc(CCCC#N)cc2c1
191 to 192	CC1(C)COc2ccc(C[C@@H](NC(=O)c3cccc4c(Cl)cccc34)[C@@H](O)c3cccc(Cl)c3)cc21 (racemic)
240 to 242	CCc1cccc(CNC(=O)c2nc3scc(COCc4ccc(C(=O)O)cc4)c3c(=O)[nH]2)c1
> 290	Cc1c(-c2ccc3sc(=O)[nH]c3c2)nc2ncccn12
190	O=[N+]([O-])c1ccc(C2NCCc3c2[nH]c2ccccc32)cc1 (centres undefined)
197	CCN(CC)C(=O)CC1CCN(Cc2cnc3cc(NC(=O)c4ccc(-c5ccc(F)cc5)cc4)c(C)cc3c2)CC1
119 to 121	O=S(=O)(NCC1CCN(C[C@H]2COc3ccc(Cl)cc3O2)CC1)c1ccc(F)cc1F
75 to 76	CCCC(C#N)(Cn1cncn1)c1ccc(F)cc1 (centres undefined)
110 to 111	COc1ccc(C2(Cn3ccnc3)CC(CNc3ccccc3C)ON2C)cc1 (centres undefined)
194	COc1ccc2nccc(CCC[C@@H]3CCN(CCCc4ccccc4F)C[C@@H]3C(=O)O)c2c1
